{"source": "patent US20250044294A1", "about": "“COMPOSITION AND METHOD OF TREATING A CANCER THROUGH AFFECTING MEMBRANE RECEPTORS OF CANCER CELLS AND THEIR DERIVED EXTRACELLULAR VESICLES” (National Yang Ming Chiao Tung University, priority 2023, published 2025)", "key": {"[1]": {"tested_on": "AKT activation", "experiment": "Western blotting of AKT activation in NSCLC cells (A549)", "assay_type": "cell-based, human", "conditions": "15 μM 30 min, pre-treatment and post-treatment, EGF 10 ng/mL 15 min", "protocol": "DMSO was used as a vehicle control. For EGF stimulation, cells were incubated with 10 ng/mL with continuous drugs treatment for 15 min at 37° C.\nCells or EVs were lysed in RIPA lysis buffer (containing 50 mM Tris-HCl, 1% NP-40, 150 mM NaCl, 0.1% SDS, 1 mM PMSF, 1 mM Na3VO4) with complete protease and protease inhibitor cocktail (1:1000) (Sigma-Aldrich). The protein quantitation is analyzed by comparing to 2 mg/ml Bovine serum albumin (BSA). Prepare the cell sample with one-tenth of dilution and the EV sample without dilution. Next, prepare all sample to 30 ul then put 10 μl each well in 96-well plates. Protein concentrations were then determined using the BCA assay kit (Thermo, USA) according to the manufacturer's instructions. Then, the same amounts of protein lysates from cells and EVs were loaded onto 8-12% SDS polyacrylamide gels and subjected to electrophoresis at 80-100 V, followed by transferring the proteins to 0.22 or 0.45 μm poly-vinylidene fluoride membranes (Millipore). The membranes were blocked with 5% skimmed milk in PBST (Tris-buffered saline containing Tween-20) for 1 h at room temperature and then washed 3 times (10 minutes for each time) with TBST (1M Tris-HCL pH7.5, NaCl, Tween 20 in ddH2O). […] The membrane was exposed using enhanced chemiluminescence reagents and analyzed using the Fujifilm LAS4000 luminescent image analysis system."}, "[2]": {"tested_on": "AKT activation", "experiment": "Western blotting of AKT activation in PDAC cells", "assay_type": "cell-based, human", "conditions": "20 μM, 6 hours", "experimental": "Cells or EVs were lysed in RIPA lysis buffer (containing 50 mM Tris-HCl, 1% NP-40, 150 mM NaCl, 0.1% SDS, 1 mM PMSF, 1 mM Na3VO4) with complete protease and […] (1:1000) (Sigma-Aldrich). The protein quantitation is analyzed by comparing to 2 mg/ml Bovine serum albumin (BSA). Prepare the cell sample with one-tenth of dilution and the EV sample without dilution. Next, prepare all sample to 30 ul then put 10 μl each well in 96-well plates. Protein concentrations were then determined using the BCA assay kit (Thermo, USA) according to the manufacturer's instructions. Then, the same amounts of protein lysates from cells and EVs were loaded onto 8-12% SDS polyacrylamide gels and subjected to electrophoresis at 80-100 V, followed by transferring the proteins to 0.22 or 0.45 μm poly-vinylidene fluoride membranes (Millipore). The membranes were blocked with 5% skimmed milk in […] (Tris-buffered saline containing Tween-20) for 1 h at room temperature and then washed 3 times (10 minutes for each time) with TBST (1M Tris-HCL pH7.5, NaCl, Tween 20 in ddH2O). After the step of washing, probed with antibodies specific for EV-enriched markers at […] overnight. […] The membrane was exposed using enhanced chemiluminescence reagents and analyzed using the Fujifilm LAS4000 luminescent image analysis system. […]"}, "[3]": {"molecular_target": "T1, EGFR-HER2 protein-protein interactions (Homo sapiens, UniProt P00533+P04626)", "T1 construct": "endogenous in cells; host or cells: HSC3 and SAS cells", "assay_type": "cell-based", "conditions": "HSC3 and SAS; pre-treatment 15 μM 30 min, then EGF 10 ng/mL 15 min"}, "[4]": {"molecular_target": "T2, EGFR-MET protein-protein interactions (Homo sapiens, UniProt P00533+P08581)", "T2 construct": "endogenous in cells; host or cells: HSC3 cells", "T2 sequence (P00533 25-1210)": "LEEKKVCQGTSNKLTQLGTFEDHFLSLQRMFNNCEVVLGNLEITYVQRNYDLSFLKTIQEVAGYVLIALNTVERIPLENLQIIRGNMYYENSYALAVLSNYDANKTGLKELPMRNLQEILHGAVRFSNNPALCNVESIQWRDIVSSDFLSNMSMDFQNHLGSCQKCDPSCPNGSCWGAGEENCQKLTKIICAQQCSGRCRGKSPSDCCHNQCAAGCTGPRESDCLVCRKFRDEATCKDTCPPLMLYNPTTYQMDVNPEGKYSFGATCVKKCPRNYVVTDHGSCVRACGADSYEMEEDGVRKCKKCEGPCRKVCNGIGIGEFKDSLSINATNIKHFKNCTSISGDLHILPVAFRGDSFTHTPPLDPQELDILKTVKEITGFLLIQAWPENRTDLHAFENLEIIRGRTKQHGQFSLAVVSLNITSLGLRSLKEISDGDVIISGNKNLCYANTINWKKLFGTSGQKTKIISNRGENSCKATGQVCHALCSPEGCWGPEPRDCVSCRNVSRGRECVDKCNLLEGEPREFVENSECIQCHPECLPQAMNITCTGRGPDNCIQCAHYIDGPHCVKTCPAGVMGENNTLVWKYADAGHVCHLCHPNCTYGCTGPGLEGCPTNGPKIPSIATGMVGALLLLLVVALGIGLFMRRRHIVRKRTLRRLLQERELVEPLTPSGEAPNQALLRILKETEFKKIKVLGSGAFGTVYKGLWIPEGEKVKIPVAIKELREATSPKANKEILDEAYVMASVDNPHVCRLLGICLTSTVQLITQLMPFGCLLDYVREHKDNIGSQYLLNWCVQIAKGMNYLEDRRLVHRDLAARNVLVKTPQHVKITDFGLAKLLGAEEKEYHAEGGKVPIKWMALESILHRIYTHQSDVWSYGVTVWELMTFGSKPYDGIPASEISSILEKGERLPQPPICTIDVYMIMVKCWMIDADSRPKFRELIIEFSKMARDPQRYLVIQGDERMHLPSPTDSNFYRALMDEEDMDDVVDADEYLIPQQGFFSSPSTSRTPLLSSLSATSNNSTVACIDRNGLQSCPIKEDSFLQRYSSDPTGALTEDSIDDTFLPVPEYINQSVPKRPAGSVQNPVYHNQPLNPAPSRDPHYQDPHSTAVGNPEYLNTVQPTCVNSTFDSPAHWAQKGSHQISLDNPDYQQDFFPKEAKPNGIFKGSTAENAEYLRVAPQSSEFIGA", "T2 sequence (P08581 308-1390 limits assumed)": "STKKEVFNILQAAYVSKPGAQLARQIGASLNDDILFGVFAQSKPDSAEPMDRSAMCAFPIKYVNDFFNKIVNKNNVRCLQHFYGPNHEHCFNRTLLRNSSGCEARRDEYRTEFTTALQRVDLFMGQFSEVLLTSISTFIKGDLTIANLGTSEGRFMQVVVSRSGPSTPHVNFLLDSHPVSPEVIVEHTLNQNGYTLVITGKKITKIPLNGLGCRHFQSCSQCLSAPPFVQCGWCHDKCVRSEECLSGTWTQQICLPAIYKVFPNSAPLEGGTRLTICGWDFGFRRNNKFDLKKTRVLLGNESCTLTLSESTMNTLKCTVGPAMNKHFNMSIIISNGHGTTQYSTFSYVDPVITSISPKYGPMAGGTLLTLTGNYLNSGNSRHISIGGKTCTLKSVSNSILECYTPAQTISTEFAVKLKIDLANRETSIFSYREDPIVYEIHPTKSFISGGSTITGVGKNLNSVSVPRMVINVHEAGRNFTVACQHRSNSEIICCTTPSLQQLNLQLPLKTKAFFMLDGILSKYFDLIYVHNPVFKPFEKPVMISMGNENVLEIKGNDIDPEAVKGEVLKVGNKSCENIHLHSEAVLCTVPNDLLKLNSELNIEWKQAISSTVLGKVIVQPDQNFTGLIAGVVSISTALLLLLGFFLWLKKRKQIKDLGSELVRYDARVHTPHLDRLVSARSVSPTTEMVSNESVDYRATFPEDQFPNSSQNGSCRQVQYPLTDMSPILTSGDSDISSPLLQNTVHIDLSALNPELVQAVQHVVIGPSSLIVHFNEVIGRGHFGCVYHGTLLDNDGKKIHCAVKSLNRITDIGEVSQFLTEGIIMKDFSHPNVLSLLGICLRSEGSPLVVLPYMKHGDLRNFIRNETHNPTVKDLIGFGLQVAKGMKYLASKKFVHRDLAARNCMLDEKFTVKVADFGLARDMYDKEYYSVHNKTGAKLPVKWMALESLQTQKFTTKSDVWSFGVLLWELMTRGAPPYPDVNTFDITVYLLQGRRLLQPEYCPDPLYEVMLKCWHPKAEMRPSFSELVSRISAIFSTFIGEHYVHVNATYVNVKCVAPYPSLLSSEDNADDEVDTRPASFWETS", "assay_type": "cell-based", "conditions": "HSC3; pre-treatment 15 μM 30 min, then EGF 10 ng/mL 15 min"}, "[5]": {"tested_on": "3R-4 and 3R-5-1 tumoroids", "experiment": "Protein expression in pancreatic cancer patient-derived tumoroids (western blotting, immunofluorescence)", "assay_type": "cell-based, human", "conditions": "72-hour treatment"}, "[6]": {"tested_on": "PDAC cells (BxPC-3, PANC-1, AsPC-1)", "experiment": "Transwell migration assay of PDAC cells", "assay_type": "cell-based, human", "conditions": "compared to gemcitabine treatment"}, "[7]": {"tested_on": "H6C7 cells and WI-38 cells", "experiment": "Co-culture cell migration with PDAC-derived secretomes", "assay_type": "cell-based, human", "experimental": "In the transwell migration assay, cells were seeded in upper chambers of Transwell plates (Transwell® Permeable Support, 6.5 mm insert, 24 well plate, 8.0 μm pore polyester membrane with sterile, Corning, #3464) in serum-free (SF) medium and seeded 5×10^4-1×10^5 cells per well, while lower chambers were added medium with 10% FBS as an attractant. Drugs were treated in both upper and lower chambers, and incubated on the 24-well plate at 37° C. for 16-24 hours. The cells were fix with 4% paraformaldehyde (PFA, SIGMA, #F8775) for 10 minutes and staining with 1% crystal violet (MERCK, 1 g Crystal violet powder dissolved in 75 ml ddH2O and 25 ml […] then filters by 0.45 μm filter) for 0.5 hours. After drying the insert completely, take at least 3 cell pictures randomly in every sample by microscope and count the number of cells by Image J.\nTo initiate this exploration, a transwell migration assay in vitro was performed to assess the migration ability of PDAC cells. […] To achieve this, a co-culture cell migration system was established to examine the behavioral changes in normal cells treated with PDAC-derived secretomes.\nFor the cell line selection, the H6C7 cell line, derived from normal human pancreatic duct epithelial (HPDE) cells and immortalized, was employed to investigate the interactions between PDAC cells and human pancreatic duct cells. This cell line serves as a valuable tool for studying the molecular and cellular interactions that occur between PDAC cells and their surrounding pancreatic ductal epithelial cells. Additionally, to simulate the lung tissue environment and validate PDAC cells with high metastatic potential to the lung, human lung fibroblasts known as WI-38 cells were chosen as a relative normal cell model. By utilizing this model, the interactions between PDAC cells and the lung microenvironment can be examined and assessed."}, "[8]": {"tested_on": "integrin α6/β4 on BxPC-3-derived EVs", "experiment": "Laminin coating wound healing assay with BxPC-3-derived EVs", "assay_type": "cell-based, human", "conditions": "laminin coating 1 μg/cm^2; EVs from PCP-treated BxPC-3 cells", "experimental": "The culture inserts (ibidi, #80209) was put on 6 well dishes (2 inserts for each well), irradiated UV for 20 minutes and cells were seeded into the well of the insert and incubating 24 hours. The insert was removed gently and washed twice with PBS to remove the old medium and cell and be observed the gap which was formed by the insert through the microscope and captured the picture of the gap at 0 hours. After I captured of the gap, different treatments were added and incubated for 16 hours. The result was observed by the microscope and quantified by Image J.\nIn this assay, H6C7 cells were seeded in the wound healing inserts with or without 1 μg/cm^2 laminin coating in the six-well plate. Once the cells were attached, the wound healing inserts were removed, and H6C7 cells were exposed to BxPC-3-derived EVs and PCP-treated BxPC-3 cell-derived EVs."}, "[9]": {"tested_on": "BEAS-2B and CL141 cells", "experiment": "Transwell cell migration with NSCLC-derived secretomes and EVs", "assay_type": "cell-based, human"}, "[10]": {"tested_on": "BxPC-3 cells", "experiment": "Laminin-induced cell proliferation (SRB)", "assay_type": "cell-based, human", "conditions": "48 hours"}, "[11]": {"tested_on": "integrin α6/β4", "experiment": "Western blotting of integrin α6/β4 on PDAC-derived EVs", "assay_type": "cell-based, human", "conditions": "EVs derived from BxPC-3 and PANC-1 cells; short-term treatment"}, "[12]": {"tested_on": "BxPC-3 cell-derived EVs", "experiment": "NanoFCM analysis of EV subpopulations from BxPC-3 cells", "assay_type": "cell-based, human", "experimental": "EV samples containing 3×10^9 particles were incubated with diluted antibodies (1:1000), including FITC-anti-CD9 antibodies, PE-anti-CD63 antibodies, and APC-anti-integrin β4 antibodies, for 30 minutes in a 37° C. water bath. Following the incubation period, an Amicon® Ultra Centrifugal Filter with a 100 kDa molecular weight cutoff (MWCO) was used and rinsed with 1× PBS buffer. The samples were centrifuged at 4000×g for 5 minutes, with the centrifugation process repeated three times. After centrifugation, the samples were retrieved and diluted 10-100 times for detecting the expression levels of EV surface proteins by NanoFCM. The results were analyzed using Kaluza Analysis Software."}, "[13]": {"molecular_target": "T3, EGFR-p-EGFR protein-protein interactions (Homo sapiens, UniProt P00533)", "T3 sequence (P00533 25-1210)": "as the sequence (P00533 25-1210) above", "experiment": "Proximity ligation assay in PDAC cells (BxPC-3)", "assay_type": "cell-based", "design": "endogenous in cells", "conditions": "pre-treatment 15 μM 30 min, then EGF 10 ng/mL 15 min"}, "[14]": {"molecular_target": "T3, EGFR-p-EGFR protein-protein interactions", "assay_type": "cell-based", "design": "endogenous in cells; host or cells: HSC3 and SAS cells", "conditions": "HSC3 and SAS; pre-treatment 15 μM 30 min, then EGF 10 ng/mL 15 min"}, "[15]": {"conditions": "3R-4 tumoroids, western blotting"}}, "note": "Read-outs that look alike come from different tables or passages of the source."}
{"smiles": "CN1CCN(CCCN2c3ccccc3Sc3ccc(Cl)cc32)CC1", "note": "[PCP, Prochlorperazine]", "values": [{"measurement": "AKT activation", "setting": "[1]", "result": "effectively suppressed AKT activation"}, {"measurement": "AKT activation", "setting": "[2]", "result": "suppressed AKT activation"}, {"measurement": "EGFR-HER2 protein-protein interactions", "setting": "[3]", "result": "could suppress EGFR-HER2 protein-protein interactions"}, {"measurement": "EGFR-MET protein-protein interactions", "setting": "[4]", "result": "could suppress EGFR-MET protein-protein interactions"}, {"measurement": "expression levels of CD9 and integrin β4", "setting": "[5]; 3R-4 and 3R-5-1 tumoroids, immunofluorescence", "result": "also inhibited the expression levels of CD9 and integrin β4"}, {"measurement": "expression levels of GPC1", "setting": "[5]; [15]", "result": "unchanged expression levels of GPC1"}, {"measurement": "expression levels of integrin α6/β4, CD9, EGFR, HER2, HER3", "setting": "[5]; [15]", "result": "inhibited the expression levels"}, {"measurement": "migration ability of PDAC cells", "setting": "[6]", "result": "significantly suppressed"}, {"measurement": "migratory capability of WI-38 cells", "setting": "[7]; AsPC-1-derived secretomes", "result": "comparatively weaker effect"}, {"measurement": "migratory capability of WI-38 cells", "setting": "[7]; BxPC-3-derived secretomes", "result": "strongest inhibition"}, {"measurement": "migratory capability of WI-38 cells", "setting": "[7]; PANC-1-derived secretomes", "result": "least effect"}, {"measurement": "migratory behavior of H6C7 cells", "setting": "[7]; co-culture with BxPC-3-derived secretomes", "result": "significantly suppressed"}, {"measurement": "functional activity of integrin α6/β4 on EVs (migration of H6C7 cells)", "setting": "[8]", "result": "significantly inhibited"}, {"measurement": "migratory capability induced by NSCLC-derived secretomes", "setting": "[9]; BEAS-2B and CL141, secretomes from H441 cells", "result": "inhibitory effect"}, {"measurement": "migratory capability induced by NSCLC-derived EVs", "setting": "[9]; treated cells with NSCLC-derived EVs", "result": "could downregulate this increased migratory capability"}, {"measurement": "laminin-induced cell proliferation rate", "setting": "[10]; 1 μg/cm^2 laminin", "result": "reversed the increased cell proliferation rate"}, {"measurement": "drug sensitivity to PCP after laminin binding", "setting": "[10]; compared to the vehicle group", "result": "significantly higher increase in drug sensitivity"}, {"measurement": "integrin α6/β4 protein expression on EVs", "setting": "[11]", "result": "inhibited integrin α6/β4 protein expression"}, {"measurement": "co-expression levels of CD9 and integrin β4 proteins on ITGB4+CD9+ EVs", "setting": "[12]", "result": "downregulated"}, {"measurement": "secretion of CD9-EVs", "setting": "[12]", "result": "significantly downregulated"}, {"measurement": "secretion of CD63-EVs", "setting": "[12]", "result": "upregulating"}, {"measurement": "secretion of ITGB4+CD9+ EVs", "setting": "[12]", "result": "significantly suppressed"}, {"measurement": "EGFR-p-EGFR protein-protein interactions", "setting": "[13]", "result": "could suppress"}, {"measurement": "EGFR-p-EGFR protein-protein interactions", "setting": "[14]", "result": "could suppress EGFR-p-EGFR protein-protein interactions"}]}
